For 65 compounds, melting point results are on record in a melting point compilation (Tetko et al.; mined from patent text by program, amines drawn as free bases though some values may be those of a salt).

In general, melting point refers to the temperature of the solid-liquid transition. `CCc1noc(=O)n1C(=O)NC` yielded a melting point of 82 °C.

`COc1cc2c(CCNC(C)=O)cn(C(C)=O)c2cc1Cl` had a melting point of 178 to 181 °C.

`O=c1[nH]c2c(Cl)c(Cl)ccc2s1`: the melting point came to 229 °C.

In turn, `Cc1sc2nc3ccc(C#N)cn3c(=O)c2c1C` displayed a melting point of 306 to 307 °C.

`COC(=O)c1cc(N)cc(N)c1SCc1ccccc1` gave a melting point of 80 to 82 °C.

For the compound `CCOC(=O)c1ccc(-c2ccc(OCCO)c(-c3ccc(N4CCCC4)c(C(C)(C)C)c3)c2)cc1`, the melting point stood at 193 °C.

Turning to `COC(=O)NS(=O)(=O)Oc1c(C(C)C)cccc1C(C)C`, the melting point lay in the range of 92 to 95 °C.

Compound `CCO[C@@H]1c2ccc3c(nc(C)n3C)c2O[C@H](c2ccccc2)[C@H]1OC(=O)C(C)(C)C` showed a melting point of 164 °C.

For the compound `O=C1CO[C@@H]2CCCC[C@H]2O1` (relative stereo), the melting point was 20 to 22 °C.

Consider `c1ccc2c(c1)COC2=N[C@@H]1CCc2ccccc21`, for which the melting point was 79 to 80 °C.

The compound `CCOCCOc1cc(N2C(=O)C3=C(CCCC3)C2=O)c(F)cc1C#N` registered a melting point of 90 °C.

The compound `Cc1cc(NC(=O)Nc2cccc3c2C2CCCCN2C3=O)no1` (stereo not given) displayed a melting point of 156 °C.

As for `Nc1c2c(=O)n3c(nc2nn1CC(F)(F)F)SCC3`, the melting point lay in the range of 285 to 288 °C.

Compound `O=C1OC(=O)c2c1c1c3ccccc3[nH]c1c1c2c2cccnc2n1C1OC(CO)C(O)C(O)C1O` (stereo not given) came in with a melting point of more than 300 °C.

As to `CCCCN1CCN(c2nc(C)c(C(=O)NCc3cccnc3)s2)C1=O`, the melting point fell in the range of 109 to 111 °C.

With `COc1ccc(Cl)c(Oc2c(CO)nc(N3CCOCC3)nc2NS(=O)(=O)c2ccc(C(C)C)cn2)c1`, the melting point amounted to 105 °C.

`O=C(O)c1csnc1-c1ccc(C(F)(F)F)cc1` came in with a melting point of 195 to 196 °C.

Regarding `c1ccc(Sc2ccc(Sc3ccccc3)cc2)cc1`, the melting point is 78 to 79 °C.

The compound `COc1cc(OC)n2nc(S(=O)(=O)Nc3c(Cl)cccc3Cl)nc2n1` came in with a melting point of 232 to 234 °C.

`COCOCCCOn1cnc2cnc(N)nc21` returned a melting point of 80 to 81 °C.

Compound `CON1CCC2(CC1)NC(=O)C(c1c(C)cc(C)cc1C)=C2OCc1ccccc1` registered a melting point of 184 to 186 °C.

`Cc1nc(-c2nc(-c3ccc(F)cc3)c(-c3ccc(S(C)(=O)=O)cc3)s2)cs1` yielded a melting point of 184 to 186 °C.

`O=c1nc(N2CCN(c3ccc(Cl)cc3)CC2)sc2c([N+](=O)[O-])cc([N+](=O)[O-])cc12` yielded a melting point of 178 to 180 °C.

`CC1(C)CN(CC=CC(=O)Nc2cc3c(Nc4ccc(F)c(Cl)c4)ncnc3cc2OCC2CC2)CC(=O)O1` yielded a melting point of 140 to 142 °C.

Compound `CC(=O)Nc1c(C(=O)c2ncccc2C)[nH]c2cc(Cl)ccc12` displayed a melting point of 173 to 175 °C.

Consider `CCCS(=O)c1cc(OCCCS(=O)Cc2ccccc2)ccc1C` (stereo not given), for which the melting point fell in the range of 92 to 94 °C.

As for `CCn1nc2c(N)nc3ccccc3c2c1CC1(F)CCN(C(C)=O)CC1`, the melting point lay in the range of 228 to 230 °C.

With `CCC1CN(c2cccc(C(C)C)c2)C(=O)C1c1cccc(Cl)c1` (stereo not given), the melting point lay within 88.5 to 90 °C.

`CCC(CC)C(=O)OC1CC(C)C=C2C=CC(C)C(CCC3CC(O)CC(=O)O3)C21` (stereo not given): the melting point lay within 120 to 122 °C.

For the compound `O=C(O)CNC1=Nc2ccc(Cl)cc2C(c2ccccc2)=NC1`, the melting point lay within 215 to 220 °C.

The compound `CC(C)(C)OC(=O)N1C(=O)CCC1c1ccc(F)cc1` (stereo not given) came in with a melting point of 117 °C.

For the compound `CC(C)CCOCc1cc(N2N=C(C(N)=O)NC2c2ccccc2)ccc1Cl` (stereo not given), the melting point was 174 to 176 °C.

In turn, `O=C(Nc1ccc(CN2C(=O)[C@H]3CCC[C@H]3N(C(=O)CCl)c3ccccc32)cc1)Oc1ccccc1` (relative stereo) gave a melting point of 207 to 210 °C.

`COc1cc(C(=O)Cc2ccccc2)ccc1O` displayed a melting point of 107 to 108 °C.

In turn, `COc1cc(C)ccc1S(=O)(=O)N1CCC(=O)C(C(c2ccccc2)c2ccccc2)C1` (stereo not given) showed a melting point of 130 to 131 °C.

As for `COc1ccc(-c2csc(C(=O)O)n2)cc1OC`, the melting point is 105 to 106 °C.

The compound `CC(CS)C(=O)NC(CC(N)=O)C(=O)O` (stereo not given) came in with a melting point of 181 °C.

Compound `CC(Oc1ccc(COc2ccc(Cl)cc2)cc1)C(=O)O` (stereo not given) yielded a melting point of 156 to 158 °C.

Compound `Nc1nc2ccccc2c2c1ncn2CCNC(=O)CCCCC1SCC2NC(=O)NC21` (stereo not given) had a melting point of 169 °C.

As to `COCCOc1ccc(Nc2nc(Nc3cc4c(cc3OC)CCN(CC(=O)N(C)C)CC4)ncc2Cl)c(OC)c1`, the melting point lay within 51 to 59 °C.

In turn, `COC1=CC(=O)C=C(Br)C1=O` yielded a melting point of 157 to 158 °C.

The compound `Cc1c([N+](=O)[O-])c(=O)n(C)c(=O)n1C` displayed a melting point of 152 °C.

Compound `COc1c(N2CC[C@@H](C3(NC(=O)OC(C)(C)C)CCC3)C2)ccc2c(=O)c(C(=O)O)cn([C@@H]3C[C@@H]3F)c12` showed a melting point of 174 °C.

Compound `CN1C(=O)C(C)(C)N=C(c2ccccc2F)c2c1ccc(N)c2Br` returned a melting point of 217 to 220 °C.

On to `COC1CC(n2cc(C=CBr)c(=O)n(C)c2=O)OC1CF` (stereo not given), for which the melting point came to 95 °C.

In the case of `Nc1nc2ccccc2c2c1nc(CCO)n2CC1(O)CCOCC1`, the melting point was in the range of 237 to 238 °C.

In turn, `O=CN(N=Cc1cccnc1)c1ccccc1` came in with a melting point of 129 to 132 °C.

On to `C/C(=C(\C#N)C(N)=S)N1CCc2ccccc2C1`, for which the melting point lay in the range of 244 to 245 °C.

Compound `Cc1ccc(Oc2c(N3C(C)CCC3C)cc(C(=O)O)cc2S(N)(=O)=O)cc1` (stereo not given) gave a melting point of 191 to 193 °C.

Take `COc1ccc(OC)c(OCCO)c1`: the melting point is 50 to 52 °C.

`CSc1nc2ncccc2c2nnc(SCc3ccccc3)n12` had a melting point of 157 to 158 °C.

Turning to `O=Cc1ccc(OCC(F)(F)F)c(O)c1`, the melting point lay within 133 to 135 °C.

`CC(=O)NC[C@H]1CN(c2ccc(N3CCC(O)(C(N)=O)CC3)c(F)c2)C(=O)O1`: the melting point was in the range of 238 to 240 °C.

`COc1cc2c(c(OC)c1)C1=C(CC2)C2=CCC(=O)C2(C)CC1` (stereo not given) displayed a melting point of 120 to 121 °C.

Regarding `CCOC(=O)c1cnc2cccc(O)c2c1`, the melting point is 240 °C.

As to `COC(=O)C(C)Oc1ccc(C(C)=O)cc1` (stereo not given), the melting point turned out to be 54.8 °C.

`CC1(C)CC(=O)c2c(Cc3ccccc3)cn(-c3ccccn3)c2C1` had a melting point of 111 to 113 °C.

`O=C(O)CCCOc1ccc2nc3c(cc2c1)CC(=O)N3` gave a melting point of 260 °C.

As to `ON=C1CCC(C2CCCCC2)=C1c1ccc(F)cc1`, the melting point fell in the range of 173 to 176 °C.

`Cc1ccc(Cl)c(Nc2ccccc2-c2nnc(S(C)=O)s2)c1Cl` (stereo not given) returned a melting point of 158 to 160 °C.

Regarding `O=C(Nc1ccc(F)cc1F)c1nccnc1Oc1cccc(C(F)(F)F)c1`, the melting point fell in the range of 107 to 109 °C.

With `CNC(=O)c1snc(-c2cccc(C(F)(F)F)c2)c1N`, the melting point was determined as 113 °C.

Turning to `O=c1cc(-c2ccccc2)oc2cc(OCCCCCCN3CCC(O)CC3)ccc12`, the melting point lay within 130 to 131 °C.

`CCOC(=O)N1CCN(C(C#N)c2ccc(OC)c(OC)c2OC)CC1` (stereo not given) had a melting point of 138 to 139 °C.

Compound `CN(C)C(=O)c1ccc(CNC(=O)C2Cc3ccccc3N2S(=O)(=O)c2ccc(-c3ccccc3C(F)(F)F)cc2)cc1` (stereo not given) displayed a melting point of 105 to 106 °C.
